The target of this assay is T1, mouse VISTA (mVISTA) (Mus musculus, UniProt Q9D659).
T1 construct: expressed in transfected cells; host or cells: Human embryonic kidney 293T cells
T1 sequence (Q9D659 33-308): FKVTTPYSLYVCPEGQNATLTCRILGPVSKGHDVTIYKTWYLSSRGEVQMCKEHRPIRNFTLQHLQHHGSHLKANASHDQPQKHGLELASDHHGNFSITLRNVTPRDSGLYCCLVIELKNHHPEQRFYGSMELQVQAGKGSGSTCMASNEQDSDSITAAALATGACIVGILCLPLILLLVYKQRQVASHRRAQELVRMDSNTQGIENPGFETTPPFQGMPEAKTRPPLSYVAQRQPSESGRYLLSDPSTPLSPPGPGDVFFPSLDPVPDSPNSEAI
As to the kind of experiment: Cell-Based Binding High-Content Assay For mVISTA (HC CBA mVISTA). The procedure, abridged:
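Read-out: Alexa 647–streptavidin signal imaged on fixed, Hoechst-stained mVISTA-293T cells, with IC50 taken from a four-parameter logistic curve. Compounds competed with 2 nM biotinylated peptide for 30 min at room temperature, tested under both no-wash and wash (1 h compound, media exchange, 1 h) formats.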

[1] abbreviates: cell-based binding high-content assay, mVISTA, the 16th table, read-out: HC CBA mVISTA IC50.
The mark [2] stands for this setting: 293T cells expressing mouse VISTA, competition with biotinylated peptide (2 nM), read-out: HC CBA mVISTA IC50.

pIC50: −log10 of the molar value. Read-outs that look alike come from different tables or passages of the source. Starred links: 1 amine or outer side, 2 acyl side, 3 side chain; linkers in the order of their positions; H or OH if unused. Positions of bridges follow the written chain, without caps; N, C: chain ends. Non-standard residues stand in square brackets, D forms with d. Residues, ends and D or L forms follow the SMILES beside them. ξ: configuration not given here. Phe(4-COOH) = N[C@@H](Cc1ccc(C(=O)O)cc1)C(=O)O; Phe(3-Me) = Cc1cccc(C[C@H](N)C(=O)O)c1; γGlu = O=C(O)[C@H](CCC(=O)[*:2])N[*:1]; 2Nal = N[C@@H](Cc1ccc2ccccc2c1)C(=O)O; βAsp = O=C(O)[C@H](CC(=O)[*:2])N[*:1]; NMeIle(3ξ) = CCC(C)[C@H](NC)C(=O)O; NMeD = CN[C@@H](CC(=O)O)C(=O)O; Ahp(2) = CCCCC[C@H](N)C(=O)O; NMeNle = CCCC[C@H](NC)C(=O)O; Tle = CC(C)(C)[C@H](N)C(=O)O; NMeS = CN[C@@H](CO)C(=O)O; NHexGly = CCCCCCNCC(=O)O; Nle = CCCC[C@H](N)C(=O)O; Orn = NCCC[C@H](N)C(=O)O; Aun = NCCCCCCCCCCC(=O)O; Nva = CCC[C@H](N)C(=O)O; AEEA = NCCOCCOCC(=O)O

One may read the pIC50 as the negative decadic logarithm of the IC50, by convention in mol/L. On to `CCCCCCN1CC(=O)N[C@@H](Cc2ccc(O)cc2)C(=O)N[C@@H](CCCC)C(=O)N[C@@H](CC(N)=O)C(=O)N[C@@H](CCCNC(=N)N)C(=O)N(C)[C@@H](CCCC)C(=O)N[C@@H](CCCCC)C(=O)N2CCC[C@H]2C(=O)N[C@@H](C(C)(C)C)C(=O)N[C@@H](CO)C(=O)N[C@H](C(=O)NCCOCCOCC(=O)N[C@@H](CCC(=O)NCCOCCOCC(=O)NCCCCCCCCCCC(=O)O)C(=O)O)CSCC(=O)N[C@@H](Cc2ccc(C(=O)O)cc2)C(=O)N[C@@H](Cc2c[nH]c3ccccc23)C(=O)N[C@@H](CC(=O)O)C1=O` [compound 2256] ({CH2CO}-[Phe(4-COOH)]WD[NHexGly]Y[Nle]NR[NMeNle][Ahp(2)]P[Tle]SC[AEEA][γGlu][AEEA][Aun]-OH; thioether N-14), for which the pIC50 (read-out: HC CBA mVISTA IC50) is 7.86.
Regarding `CCCCCCN1CC(=O)N[C@@H](Cc2ccc(O)cc2)C(=O)N[C@@H](CCCC)C(=O)N[C@@H](CC(=O)O)C(=O)N[C@@H](CCCNC(=N)N)C(=O)N[C@@H](CC(C)C)C(=O)N[C@@H](CCCCC)C(=O)N2CCC[C@H]2C(=O)N[C@@H](C(C)C)C(=O)N[C@@H](CC(=O)O)C(=O)N[C@H](C(=O)N[C@@H](CO)C(N)=O)CSCC(=O)N[C@@H](Cc2ccc3ccccc3c2)C(=O)N[C@@H](Cc2ccc(O)cc2)C(=O)N[C@@H](CC(=O)O)C1=O` [Ex 1317] ({CH2CO}-[2Nal]YD[NHexGly]Y[Nle]DRL[Ahp(2)]PVDCS-NH2; thioether N-14), under setting [1], the pIC50 is 7.76.
Turning to `CCCCCCN1CC(=O)N[C@@H](Cc2ccc(O)cc2)C(=O)N[C@@H](C(C)C)C(=O)NCC(=O)N[C@@H](CCCNC(=N)N)C(=O)N[C@@H](CC(C)C)C(=O)N[C@@H](CCCCC)C(=O)N2CCC[C@H]2C(=O)N[C@@H](C(C)C)C(=O)N[C@@H](CO)C(=O)N[C@H](C(=O)NCC(=O)O)CSCC(=O)N[C@@H](Cc2ccccc2)C(=O)N[C@@H](Cc2ccc(O)cc2)C(=O)N[C@@H](CC(=O)O)C1=O` [Example 1063] ({CH2CO}-FYD[NHexGly]YVGRL[Ahp(2)]PVSCG-OH; thioether N-14), the pIC50 under setting [2] was 7.54.
On to `CCCCCCN1CC(=O)N[C@@H](Cc2ccc(O)cc2)C(=O)N[C@@H](CC(C)C)C(=O)N[C@@H](CC(N)=O)C(=O)N[C@@H](CCCNC(=N)N)C(=O)N(C)[C@@H](CCCC)C(=O)N[C@@H](CCCCC)C(=O)N2CCC[C@H]2C(=O)N[C@@H](C(C)(C)C)C(=O)N[C@@H](CO)C(=O)N[C@H](C(=O)NCCOCCOCC(=O)N[C@@H](CCC(=O)NCCOCCOCC(=O)NCCCCCCCCCCC(=O)O)C(=O)O)CSCC(=O)N[C@@H](Cc2ccccc2)C(=O)N[C@@H](Cc2ccc(O)cc2)C(=O)N[C@@H](CC(=O)O)C1=O` [compound 2260] ({CH2CO}-FYD[NHexGly]YLNR[NMeNle][Ahp(2)]P[Tle]SC[AEEA][γGlu][AEEA][Aun]-OH; thioether N-14), for which the pIC50 (read-out: HC CBA mVISTA IC50) was 7.80.
Regarding `CCCCCCN1CC(=O)N[C@@H](Cc2ccc(O)cc2)C(=O)N[C@@H](CCCC)C(=O)NCC(=O)N[C@@H](CCCNC(N)=O)C(=O)N[C@@H](CC(C)C)C(=O)N[C@@H](CCCCC)C(=O)N2CCC[C@H]2C(=O)N[C@@H](C(C)C)C(=O)N[C@@H](CC(=O)O)C(=O)N[C@H](C(=O)NCCOCCOCC(=O)N[C@@H](CC(=O)O)C(=O)NCCOCCOCC(=O)NCCCCCCCCCCC(=O)O)CSCC(=O)N[C@@H](Cc2cccc(C)c2)C(=O)N[C@@H](Cc2ccc(O)cc2)C(=O)N[C@@H](CC(=O)O)C1=O` (stereo in doubt) [compound 2309], for the setting “cell-based binding high-content assay, read-out: HC CBA miPrISTA IC50”, the pIC50 was 7.75.
With `CCCCCCN1CC(=O)N[C@@H](Cc2ccc(O)cc2)C(=O)N[C@@H](C(C)C)C(=O)NCC(=O)N[C@@H](CCCNC(=N)N)C(=O)N[C@@H](CC(C)C)C(=O)N[C@@H](CCCCC)C(=O)N2CCC[C@H]2C(=O)N[C@@H](C(C)C)C(=O)N[C@@H](CC(=O)O)C(=O)N[C@H](C(=O)N[C@@H](CO)C(=O)N[C@@H](CCCN)C(=O)N[C@@H](CCC(N)=O)C(=O)O)CSCC(=O)N[C@@H](Cc2ccc3ccccc3c2)C(=O)N[C@@H](Cc2ccc(O)cc2)C(=O)N[C@@H](CC(=O)O)C1=O` [Example 1160] ({CH2CO}-[2Nal]YD[NHexGly]YVGRL[Ahp(2)]PVDCS[Orn]Q-OH; thioether N-14), the pIC50 under setting [2] is 7.43.
On to `CCCCCCN1CC(=O)N[C@@H](Cc2ccc(O)cc2)C(=O)N[C@@H](CCCC)C(=O)N[C@@H](CC(N)=O)C(=O)N[C@@H](CCCNC(=N)N)C(=O)N(C)[C@@H](CC(=O)O)C(=O)N[C@@H](CCCCC)C(=O)N2CCC[C@H]2C(=O)N[C@@H](C(C)C)C(=O)N[C@@H](CC(=O)O)C(=O)N[C@H](C(=O)NCC(=O)O)CSCC(=O)N[C@@H](Cc2ccccc2)C(=O)N[C@@H](Cc2c[nH]c3ccccc23)C(=O)N[C@@H](CC(=O)O)C1=O` [Example 1368] ({CH2CO}-FWD[NHexGly]Y[Nle]NR[NMeD][Ahp(2)]PVDCG-OH; thioether N-14), for which the pIC50 (read-out: HC CBA mVISTA IC50) is 7.43.
On the same count and under the same terms, then `CCCCCCN1CC(=O)N[C@@H](Cc2ccc(O)cc2)C(=O)N[C@@H](CCC)C(=O)N[C@@H](CC(N)=O)C(=O)N[C@@H](CCCNC(=N)N)C(=O)N[C@@H](CC(C)C)C(=O)N[C@@H](CCCCC)C(=O)N2CCC[C@H]2C(=O)N[C@@H](C(C)C)C(=O)N2CCC[C@H]2C(=O)N[C@H](C(=O)NCC(=O)O)CSCC(=O)N[C@@H](Cc2ccccc2)C(=O)N[C@@H](Cc2ccc(O)cc2)C(=O)N[C@@H](CC(=O)O)C1=O` [compound 1120] ({CH2CO}-FYD[NHexGly]Y[Nva]NRL[Ahp(2)]PVPCG-OH; thioether N-14), with 8.59; and `CCCCCCN1CC(=O)N[C@@H](Cc2ccc(O)cc2)C(=O)N[C@@H](CC(C)C)C(=O)N[C@@H](CC(N)=O)C(=O)N[C@@H](CCCNC(=N)N)C(=O)N(C)[C@@H](CCCC)C(=O)N[C@@H](CCCCC)C(=O)N2CCC[C@H]2C(=O)N[C@@H](C(C)(C)C)C(=O)N[C@@H](CC(=O)O)C(=O)N[C@H](C(=O)NCCOCCOCC(=O)N[C@@H](CCC(=O)NCCOCCOCC(=O)NCCCCCCCCCCC(=O)O)C(=O)O)CSCC(=O)N[C@@H](Cc2ccccc2)C(=O)N[C@@H](Cc2c[nH]c3ccccc23)C(=O)N[C@@H](CC(=O)O)C1=O` [compound 2265] ({CH2CO}-FWD[NHexGly]YLNR[NMeNle][Ahp(2)]P[Tle]DC[AEEA][γGlu][AEEA][Aun]-OH; thioether N-14), with 7.75.
As for `CCCCCCN1CC(=O)N[C@@H](Cc2ccc(O)cc2)C(=O)N[C@@H](CC(C)C)C(=O)N[C@@H](CC(N)=O)C(=O)N[C@@H](CCCNC(=N)N)C(=O)N(C)[C@@H](CO)C(=O)N[C@@H](CCCCC)C(=O)N2CCC[C@H]2C(=O)N[C@@H](C(C)(C)C)C(=O)N[C@@H](CO)C(=O)N[C@H](C(=O)N[C@@H](CC(=O)NCCOCCOCC(=O)N[C@@H](CC(=O)O)C(=O)NCCOCCOCC(=O)NCCCCCCCCCCC(=O)O)C(=O)O)CSCC(=O)N[C@@H](Cc2ccccc2)C(=O)N[C@@H](Cc2ccc(O)cc2)C(=O)N[C@@H](CC(=O)O)C1=O` [compound 2033] ({CH2CO}-FYD[NHexGly]YLNR[NMeS][Ahp(2)]P[Tle]SC[βAsp][AEEA]D[AEEA][Aun]-OH; thioether N-14), where the note is “cell-based binding high-content assay, mVISTA, read-out: HC CBA miPr ISTA IC50”, the pIC50 was 7.74.
For `CCCCCCN1CC(=O)N[C@@H](Cc2ccc(O)cc2)C(=O)N[C@@H](CCCCC)C(=O)N[C@@H](CC(N)=O)C(=O)N[C@@H](CCCNC(=N)N)C(=O)N(C)[C@@H](CCCC)C(=O)N[C@@H](CCCCC)C(=O)N2CCC[C@H]2C(=O)N[C@@H](C(C)C)C(=O)N[C@@H](C(C)C)C(=O)N[C@H](C(=O)NCC(=O)O)CSCC(=O)N[C@@H](Cc2ccccc2)C(=O)N[C@@H](Cc2cccc(C)c2)C(=O)N[C@@H](CC(=O)O)C1=O` [compound 1344] ({CH2CO}-F[Phe(3-Me)]D[NHexGly]Y[Ahp(2)]NR[NMeNle][Ahp(2)]PVVCG-OH; thioether N-14), for the setting “read-out: HC CBA mVISTA IC50”, the pIC50 was 7.96.
Same read-out and setting: then `CCCCCCN1CC(=O)N[C@@H](Cc2ccc(O)cc2)C(=O)N[C@@H](CCCC)C(=O)N[C@@H](CC(N)=O)C(=O)N[C@@H](CCCNC(=N)N)C(=O)N(C)[C@@H](C(C)CC)C(=O)N[C@@H](CCCCC)C(=O)N2CCC[C@H]2C(=O)N[C@@H](C(C)(C)C)C(=O)N[C@@H](CO)C(=O)N[C@H](C(=O)NCCOCCOCC(=O)N[C@@H](CCC(=O)NCCOCCOCC(=O)NCCCCCCCCCCC(=O)O)C(=O)O)CSCC(=O)N[C@@H](Cc2ccccc2)C(=O)N[C@@H](Cc2c[nH]c3ccccc23)C(=O)N[C@@H](CC(=O)O)C1=O` (stereo partly shown) [compound 2246] ({CH2CO}-FWD[NHexGly]Y[Nle]NR[NMeIle(3ξ)][Ahp(2)]P[Tle]SC[AEEA][γGlu][AEEA][Aun]-OH; thioether N-14), with 7.33.
Turning to `CCCCCCN1CC(=O)N[C@@H](Cc2ccc(O)cc2)C(=O)N[C@@H](CC(C)C)C(=O)NCC(=O)N[C@@H](CCCNC(=N)N)C(=O)N[C@@H](CC(N)=O)C(=O)N[C@@H](CCCCC)C(=O)N2CCC[C@H]2C(=O)N[C@@H](C(C)C)C(=O)N[C@@H](CO)C(=O)N[C@H](C(=O)NCC(=O)O)CSCC(=O)N[C@@H](Cc2ccc3ccccc3c2)C(=O)N[C@@H](Cc2ccc(O)cc2)C(=O)N[C@@H](CC(=O)O)C1=O` [Ex 1293] ({CH2CO}-[2Nal]YD[NHexGly]YLGRN[Ahp(2)]PVSCG-OH; thioether N-14), the pIC50 under setting [1] was 7.70.

The values above are taken from patent publication US20240218022A1, “ANTI-VISTA MACROCYCLIC PEPTIDES AND COMPOSITIONS” (BRISTOL-MYERS SQUIBB COMPANY, priority 2022, published 2024).
